Source: patent publication US20250368649A1, “TETRAHYDROPYRIDOPYRIMIDINE PAN-KRAS INHIBITORS” (Mirati Therapeutics, Inc., priority 2022, published 2025)

What was measured:
KRas G12R = KRas G12R (Homo sapiens, UniProt P01116, G12R); experiment: biochemical; conditions: Binding to KRas (IC50 nM) G12R, TR-FRET displacement, KRas G12R
A549 cells = experiment: Inhibition of KRas-mediated phosphorylation of ERK (Cisbio HTRF pERK), A549 cells; assay type: cell-based; conditions: Homo sapiens, single point at 100 nM, 3 hrs compound incubation
KRas G12D = KRas G12D (Homo sapiens, UniProt P01116, G12D); experiment: biochemical; conditions: Binding to KRas (IC50 nM) G12D, TR-FRET displacement, KRas G12D
H358 cells = experiment: Inhibition of KRas-mediated phosphorylation of ERK (Cisbio HTRF pERK), H358 cells; assay type: cell-based; conditions: Homo sapiens, NCI-H358, single point at 100 nM, 3 hrs compound incubation
H727 cells = experiment: Inhibition of KRas-mediated phosphorylation of ERK (Cisbio HTRF pERK), H727 cells; assay type: cell-based; conditions: Homo sapiens; for inhibition at 0.1 µM: NCI-H727, single point at 100 nM, 3 hrs compound incubation; for IC50: NCI-H727, 3 h, 3 hr compound incubation, Cisbio pERK HTRF
KRas G12V = KRas G12V (Homo sapiens, UniProt P01116, G12V); experiment: biochemical; conditions: Binding to KRas (IC50 nM) G12V, TR-FRET displacement, KRas G12V
ASPC1 cells = experiment: Inhibition of KRas-mediated phosphorylation of ERK (Cisbio HTRF pERK), ASPC1 cells; assay type: cell-based; conditions: Homo sapiens, AsPC-1 cells; for inhibition at 0.1 µM: ASPC1, single point at 100 nM, 3 hrs compound incubation; for IC50: ASPC1, 3 h, 3 hr compound incubation, Cisbio pERK HTRF
HCT116 cells = experiment: Inhibition of KRas-mediated phosphorylation of ERK (Cisbio HTRF pERK), HCT116 cells; assay type: cell-based; conditions: Homo sapiens, HCT-116, single point at 100 nM, 3 hrs compound incubation
H460 cells = experiment: Inhibition of KRas-mediated phosphorylation of ERK (Cisbio HTRF pERK), H460 cells; assay type: cell-based; conditions: Homo sapiens, NCI-H460, single point at 100 nM, 3 hrs compound incubation

Sequence of KRas G12R (P01116 1-169 isoform P01116-2 G12R): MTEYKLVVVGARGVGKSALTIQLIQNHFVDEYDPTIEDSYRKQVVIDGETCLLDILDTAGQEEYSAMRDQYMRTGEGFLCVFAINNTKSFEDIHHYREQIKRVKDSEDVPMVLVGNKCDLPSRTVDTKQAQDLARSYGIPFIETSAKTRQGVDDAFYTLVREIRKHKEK
Sequence of KRas G12D (P01116 1-169 isoform P01116-2 G12D): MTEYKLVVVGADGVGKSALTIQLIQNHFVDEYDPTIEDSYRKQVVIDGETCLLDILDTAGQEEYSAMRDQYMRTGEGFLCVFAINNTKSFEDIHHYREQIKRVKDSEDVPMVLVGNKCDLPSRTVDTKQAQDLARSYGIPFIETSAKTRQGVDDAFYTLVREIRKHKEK
Sequence of KRas G12V (P01116 1-169 isoform P01116-2 G12V): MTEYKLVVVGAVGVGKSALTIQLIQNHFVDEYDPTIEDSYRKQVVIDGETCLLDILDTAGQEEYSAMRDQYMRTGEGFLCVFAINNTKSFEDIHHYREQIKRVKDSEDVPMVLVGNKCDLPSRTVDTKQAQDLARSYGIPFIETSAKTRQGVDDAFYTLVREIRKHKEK

IC50 (KRas G12R)	IC50 (KRas G12D)	IC50 (KRas G12V)	IC50 (H727 cells)	IC50 (ASPC1 cells)	Structure (SMILES)	inhibition at 0.1 µM (A549 cells)	inhibition at 0.1 µM (H358 cells)	inhibition at 0.1 µM (H727 cells)	inhibition at 0.1 µM (ASPC1 cells)	inhibition at 0.1 µM (HCT116 cells)	inhibition at 0.1 µM (H460 cells)
4610 nM	1390 nM	1140 nM	–	–	CCc1c(F)ccc2cc(O)cc(N3CCc4c(nc(OC[C@@]56CCCN5C[C@H](F)C6)nc4N4CCCc5c(cnn5C5CC5)C4)C3)c12 [Example 238, 4-(4-(1-cyclopropyl-7,8-dihydropyrazolo[4,3-c]azepin-5(1H,4H,6H)-yl)-2-(((2R,7aS)-2-fluorohexahydro-1H-pyrrolizin-7a-yl)methoxy)-5,6-dihydropyrido[3,4-d]pyrimidin-7(8H)-yl)-5-ethyl-6-fluoronaphthalen-2-ol]	-3%	-17%	-2%	9%	–	–
7480 nM	9840 nM	2380 nM	–	–	CCc1c(F)ccc2cc(O)cc(N3CCc4c(nc(OC[C@@]56CCCN5C[C@H](F)C6)nc4N4CCCc5c(cnn5C5CCC5)C4)C3)c12 [Example 240, 4-(4-(1-cyclobutyl-7,8-dihydropyrazolo[4,3-c]azepin-5(1H,4H,6H)-yl)-2-(((2R,7aS)-2-fluorohexahydro-1H-pyrrolizin-7a-yl)methoxy)-5,6-dihydropyrido[3,4-d]pyrimidin-7(8H)-yl)-5-ethyl-6-fluoronaphthalen-2-ol]	-1%	-1%	-18%	-5%	–	–
48 nM	173 nM	155 nM	5020 nM	7110 nM	CCc1c(F)ccc2cc(O)cc(N3CCc4c(nc(OC[C@@]56CCCN5C[C@H](F)C6)nc4N4CCCc5nn(C6CCC6)cc5C4)C3)c12 [Example 241, 4-(4-(2-cyclobutyl-7,8-dihydropyrazolo[4,3-c]azepin-5(2H,4H,6H)-yl)-2-(((2R,7aS)-2-fluorohexahydro-1H-pyrrolizin-7a-yl)methoxy)-5,6-dihydropyrido[3,4-d]pyrimidin-7(8H)-yl)-5-ethyl-6-fluoronaphthalen-2-ol]	5%	-15%	-4%	5%	–	–
49 nM	57 nM	85 nM	5630 nM	3480 nM	CCc1c(F)ccc2cc(O)cc(N3CCc4c(nc(OC[C@@]56CCCN5C[C@H](F)C6)nc4N4CCCc5nn(C6COC6)cc5C4)C3)c12 [Example 242, 5-ethyl-6-fluoro-4-(2-(((2R,7aS)-2-fluorohexahydro-1H-pyrrolizin-7a-yl)methoxy)-4-(2-(oxetan-3-yl)-7,8-dihydropyrazolo[4,3-c]azepin-5(2H,4H,6H)-yl)-5,6-dihydropyrido[3,4-d]pyrimidin-7(8H)-yl)naphthalen-2-ol]	6%	3%	2%	-9%	–	–
261 nM	109 nM	295 nM	8770 nM	5370 nM	CCc1c(F)ccc2cc(O)cc(N3CCc4c(nc(OC[C@@]56CCCN5C[C@H](F)C6)nc4N4CCCn5nc(C(C(F)F)N(C)C)cc5C4)C3)c12 (stereo partly drawn) [Example 263, 4-(4-(2-(1-(dimethylamino)-2,2-difluoroethyl)-7,8-dihydro-4H-pyrazolo[1,5-a][1,4]diazepin-5(6H)-yl)-2-(((2R,7aS)-2-fluorotetrahydro-1H-pyrrolizin-7a(5H)-yl)methoxy)-5,8-dihydropyrido[3,4-d]pyrimidin-7(6H)-yl)-5-ethyl-6-fluoronaphthalen-2-ol]	–	–	–	–	-11%	-31%
25 nM	93 nM	22 nM	5080 nM	> 10000 nM	CCc1c(F)ccc2cc(O)cc(N3CCc4c(nc(OC[C@@]56CCCN5C[C@H](F)C6)nc4N4CCn5cncc5C4)C3)c12 [Example 279, 4-(4-(5,6-dihydroimidazo[1,5-a]pyrazin-7(8H)-yl)-2-(((2R,7aS)-2-fluorohexahydro-1H-pyrrolizin-7a-yl)methoxy)-5,6-dihydropyrido[3,4-d]pyrimidin-7(8H)-yl)-5-ethyl-6-fluoronaphthalen-2-ol]	–	–	–	–	4%	0%
230 nM	195 nM	264 nM	> 10000 nM	7000 nM	CCc1c(F)ccc2cc(O)cc(N3CCc4c(nc(OC[C@@]56CCCN5C[C@H](F)C6)nc4N4CCCn5nc(C(N(C)C)C(F)(F)F)cc5C4)C3)c12 (stereo partly drawn) [Example 280, 4-(4-(2-(1-(dimethylamino)-2,2,2-trifluoroethyl)-7,8-dihydro-4H-pyrazolo[1,5-a][1,4]diazepin-5(6H)-yl)-2-(((2R,7aS)-2-fluorotetrahydro-1H-pyrrolizin-7a(5H)-yl)methoxy)-5,8-dihydropyrido[3,4-d]pyrimidin-7(6H)-yl)-5-ethyl-6-fluoronaphthalen-2-ol]	-20%	14%	–	–	–	–
441 nM	505 nM	717 nM	> 10000 nM	6450 nM	CCc1c(F)ccc2cc(O)cc(N3CCc4c(nc(OC[C@@]56CCCN5C[C@H](F)C6)nc4N4CCCn5nc(N(C(C)=O)C(C)C)cc5C4)C3)c12 [Example 287, N-(5-(7-(8-ethyl-7-fluoro-3-hydroxynaphthalen-1-yl)-2-(((2R,7aS)-2-fluorohexahydro-1H-pyrrolizin-7a-yl)methoxy)-5,6,7,8-tetrahydropyrido[3,4-d]pyrimidin-4-yl)-5,6,7,8-tetrahydro-4H-pyrazolo[1,5-a][1,4]diazepin-2-yl)-N-i sopropyvlacetamide]	-15%	-20%	–	–	–	–
6880 nM	32800 nM	4620 nM	3360 nM	7080 nM	CCc1c(F)ccc2cc(O)cc(N3CCc4c(nc(OC[C@@]56CCCN5C[C@H](F)C6)nc4N4CC(=O)Nc5cc(Br)ccc5C4)C3)c12 [Example 319, 8-bromo-4-(7-(8-ethyl-7-fluoro-3-hydroxynaphthalen-1-yl)-2-(((2R,7aS)-2-fluorotetrahydro-1H-pyrrolizin-7a(5H)-yl)methoxy)-5,6,7,8-tetrahydropyrido[3,4-d]pyrimidin-4-yl)-1,3,4,5-tetrahydro-2H-benzo[e][1,4]diazepin-2-one]	–	–	–	–	8%	-10%
11 nM	3 nM	12 nM	2900 nM	1240 nM	CCc1c(F)ccc2cc(O)cc(N3CCc4c(nc(OC[C@@]56CCCN5C[C@H](F)C6)nc4N4CCCn5nc(CS(=O)(=O)NC)cc5C4)C3)c12 [Example 495, 1-(5-(7-(8-ethyl-7-fluoro-3-hydroxynaphthalen-1-yl)-2-(((2R,7aS)-2-fluorohexahydro-1H-pyrrolizin-7a-yl)methoxy)-5,6,7,8-tetrahydropyrido[3,4-d]pyrimidin-4-yl)-5,6,7,8-tetrahydro-4H-pyrazolo[1,5-a][1,4]diazepin-2-yl)-N-methylmethanesulfonamide]	26%	1%	3%	-1%	–	–
22 nM	10 nM	9 nM	410 nM	258 nM	CCCCCCCCN(C)C(=O)c1cc2n(n1)CCCN(c1nc(OC[C@@]34CCCN3C[C@H](F)C4)nc3c1CCN(c1cc(O)cc4ccc(F)c(CC)c14)C3)C2 [Example 498, 5-(7-(8-ethyl-7-fluoro-3-hydroxynaphthalen-1-yl)-2-(((2R,7aS)-2-fluorohexahydro-1H-pyrrolizin-7a-yl)methoxy)-5,6,7,8-tetrahydropyrido[3,4-d]pyrimidin-4-yl)-N-methyl-N-octyl-5,6,7,8-tetrahydro-4H-pyrazolo[1,5-a][1,4]diazepine-2-carboxamide]	25%	5%	12%	-13%	–	–
–	–	–	1080 nM	128 nM	CCc1c(F)ccc2cc(O)cc(N3CCc4c(nc(OC[C@@]56CCCN5C[C@H](F)C6)nc4N4CCCn5nc(C(=O)N6CC7(CNC7)C6)cc5C4)C3)c12 [Example 505, (5-(7-(8-ethyl-7-fluoro-3-hydroxynaphthalen-1-yl)-2-(((2R,7aS)-2-fluorohexahydro-1H-pyrrolizin-7a-yl)methoxy)-5,6,7,8-tetrahydropyrido[3,4-d]pyrimidin-4-yl)-5,6,7,8-tetrahydro-4H-pyrazolo[1,5-a][1,4]diazepin-2-yl)(2,6-diazaspiro[3.3]heptan-2-yl)methanone]	–	–	26%	30%	7%	0%
